From patent publication US20170008888A1 (KYORIN PHARMACEUTICAL CO., LTD., priority 2014, published 2017)
Read-outs that look alike come from different tables or passages of the source. Blank lines part the entries; values can stand above or below the molecule they belong to.

Tests used:
cynomolgus monkey PBMCs = experiment: Cytokine response by primary cynomolgus monkey PBMCs stimulated with LPS; format: cell-based, cynomolgus monkey (M. fascicularis); settings: Macaca fascicularis, PBMC, 100 ng/ml LPS 20 h
Method: Freshly isolated cynomolgus monkey (M. fascicularis) peripheral blood mononuclear cells (PBMCs) were purchased from SNBL (Everett, Wash.). Cells were seeded at 1.8e6 cells/ml in RPMI 1640 (Life Technologies, Grand Island, N.Y.) containing 10% (v/v) charcoal-dextran treated, heat inactivated FBS (Omega Scientific, Tarzana, Calif.), 0.05 mM 2-Mercaptoethanol (Sigma-Aldrich, St. Louis, Mo.), and 1×Pen/Strep Amphotericin B (Lonza, Allendale, N.J.). Cells were pre-treated with 0.1% DMSO or with a test compound for 1 h at 37° C. in a humidified atmosphere at 5% CO2. Compounds were tested at 10 μM down by ⅕ in a 4-point serial dilution series. Cells were then stimulated with 100 ng/ml LPS from E. coli 0111:B4 (EMD Millipore, Billerica, Mass.) for 20 h at 37° C. in a humidified atmosphere at 5% CO2. Supernatant was collected and analyzed using the Milliplex Map Non-human Primate Cytokine Magnetic Bead Panel Kit (EMD Millipore) as per manufacturer's protocols. Magnetic beads were read on the Bio-Plex MAGPIX multiplex reader instrument using the accompanying xPONENT 4.2 acquisition software (Bio-Rad Laboratories, Hercules, Calif.). Data were analyzed via the Bio-Plex Manager software v6.1 (Bio-Rad Laboratories).

human PBMCs = experiment: Cytokine response by primary human PBMCs stimulated with PMA/ionomycin or LPS; format: cell-based; settings: PBMC
Method: Freshly isolated human PBMCs were purchased from Astarte Biologics (Redmond, Wash.). Cells were seeded at 2e6 cells/ml in RPMI 1640 (Life Technologies, Grand Island, N.Y.) containing 10% (v/v) charcoal-dextran treated, heat inactivated FBS (Omega Scientific, Tarzana, Calif.), 0.05 mM 2-Mercaptoethanol (Sigma-Aldrich, St. Louis, Mo.), and 1×Pen/Strep Amphotericin B (Lonza, Allendale, N.J.). Cells were pre-treated with 0.1% DMSO or with test compounds for 1 h at 37° C. in a humidified atmosphere at 5% CO2. Compounds were tested at 10 μM down by ⅕ in a 4-point serial dilution series. Cells were then stimulated with either 50 ng/ml phorbol 12-myristate 13-acetate (PMA)(Sigma-Aldrich)+1 μg/ml ionomycin (Life Technologies) or with 100 ng/ml LPS from E. coli 0111:B4 (EMD Millipore, Billerica, Mass.) for 20 h at 37° C. in a humidified atmosphere at 5% CO2. Supernatant was collected and analyzed using the Bio-Plex Pro Human Cytokine 17-Plex Panel (Bio-Rad Laboratories, Hercules, Calif.) as per manufacturer's protocols. Magnetic beads were read on the Bio-Plex MAGPIX multiplex reader instrument using the accompanying xPONENT 4.2 acquisition software (Bio-Rad Laboratories). Data were analyzed via the Bio-Plex Manager software v6.1 (Bio-Rad Laboratories).

ATAD2A = target: T1, ATAD2A (Homo sapiens, UniProt Q6PL18); experiment: Bromodomain binding assay: ATAD2A
T1 construct: T7 phage strains displaying bromodomains were grown in parallel; made in house; host or cells: E. coli host derived from BL21, infected with T7 phage
T1 sequence (Q6PL18 980-1092 limits assumed): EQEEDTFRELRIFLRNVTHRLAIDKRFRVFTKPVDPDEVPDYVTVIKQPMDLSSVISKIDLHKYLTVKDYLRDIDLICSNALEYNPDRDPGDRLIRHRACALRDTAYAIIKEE
Method: (§1) T7 phage strains displaying bromodomains were grown in parallel in 24-well blocks in an E. coli host derived from the BL21 strain. E. coli were grown to log-phase and infected with T7 phage from a frozen stock (multiplicity of infection=0.4) and incubated with shaking at 32° C. until lysis (90-150 minutes). The lysates were centrifuged (5,000×g) and filtered (0.2 μm) to remove cell debris. […] The liganded beads were blocked with excess biotin and washed with blocking buffer (SeaBlock (Pierce), 1% BSA, 0.05 Tween 20, 1 mM DTT) to remove unbound ligand and to reduce non-specific phage binding. […] Test compounds (T62 and 46) were prepared as 1000× stocks in 100% DMSO and subsequently diluted 1:10 in monoethylene glycol (MEG) to create stocks at 100× the screening concentration (resulting stock solution is 10% DMSO/90% MEG). The compounds were then diluted directly into the assays such that the final concentration of DMSO and MEG were 0.1% and 0.9%, respectively. All reactions were performed in polystyrene 96-well plates in a final volume of 0.135 ml. […] The bromodomain concentration in the eluates was measured by qPCR. Compounds were assayed for binding activity against a panel of 40 bromodomain-containing proteins.

BRD7 = target: T2, BRD7 (Homo sapiens, UniProt Q9NPI1); experiment: Bromodomain binding assay: BRD7
T2 construct: T7 phage strains displaying bromodomains were grown in parallel; made in house; host or cells: E. coli host derived from BL21, infected with T7 phage
T2 sequence (Q9NPI1 131-235 limits assumed, species assumed): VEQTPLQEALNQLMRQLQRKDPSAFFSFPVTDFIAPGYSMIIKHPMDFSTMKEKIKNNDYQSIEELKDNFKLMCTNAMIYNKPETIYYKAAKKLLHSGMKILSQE
Method: as §1

BRD8 = target: T3, BRD8 (Homo sapiens, UniProt Q9H0E9); experiment: Bromodomain binding assay: BRD8
T3 construct: read out by qPCR of the phage DNA
T3 sequence (Q9H0E9 whole entry): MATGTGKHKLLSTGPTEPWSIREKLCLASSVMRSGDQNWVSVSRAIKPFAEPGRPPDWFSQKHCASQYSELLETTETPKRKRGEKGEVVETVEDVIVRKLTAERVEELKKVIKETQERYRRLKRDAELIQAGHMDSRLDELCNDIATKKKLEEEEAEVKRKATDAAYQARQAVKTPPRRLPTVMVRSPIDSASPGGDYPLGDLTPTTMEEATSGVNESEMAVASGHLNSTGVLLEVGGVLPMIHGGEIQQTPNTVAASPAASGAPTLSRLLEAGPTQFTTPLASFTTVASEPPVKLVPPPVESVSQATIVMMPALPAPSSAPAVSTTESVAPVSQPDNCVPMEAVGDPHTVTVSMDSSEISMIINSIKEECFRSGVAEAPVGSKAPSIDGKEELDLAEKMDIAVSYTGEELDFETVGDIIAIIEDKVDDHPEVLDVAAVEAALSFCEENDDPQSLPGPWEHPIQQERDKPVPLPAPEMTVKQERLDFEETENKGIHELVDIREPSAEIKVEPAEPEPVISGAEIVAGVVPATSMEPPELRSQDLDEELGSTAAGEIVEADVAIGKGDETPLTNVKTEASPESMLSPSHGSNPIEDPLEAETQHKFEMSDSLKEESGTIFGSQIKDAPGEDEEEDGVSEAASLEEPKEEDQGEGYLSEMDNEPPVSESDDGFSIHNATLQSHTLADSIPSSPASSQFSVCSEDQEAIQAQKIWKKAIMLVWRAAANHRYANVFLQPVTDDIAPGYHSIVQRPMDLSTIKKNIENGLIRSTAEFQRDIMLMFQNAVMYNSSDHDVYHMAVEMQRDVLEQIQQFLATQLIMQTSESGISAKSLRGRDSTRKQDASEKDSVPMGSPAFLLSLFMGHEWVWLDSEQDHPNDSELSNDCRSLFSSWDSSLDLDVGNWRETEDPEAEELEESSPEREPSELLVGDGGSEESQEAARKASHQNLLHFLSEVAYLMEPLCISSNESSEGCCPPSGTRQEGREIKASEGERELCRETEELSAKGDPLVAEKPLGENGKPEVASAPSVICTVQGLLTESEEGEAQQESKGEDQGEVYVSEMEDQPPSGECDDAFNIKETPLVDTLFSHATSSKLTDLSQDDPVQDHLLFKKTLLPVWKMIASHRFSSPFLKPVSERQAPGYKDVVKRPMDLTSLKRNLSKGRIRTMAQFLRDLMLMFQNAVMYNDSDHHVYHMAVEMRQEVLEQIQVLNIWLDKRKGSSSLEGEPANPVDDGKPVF
Method: as §1

FALZ = target: T4, FALZ (Homo sapiens, UniProt Q12830); experiment: Bromodomain binding assay: FALZ
T4 construct: made in house; host or cells: E. coli host derived from the BL21 strain (T7 phage lysate)
Method: as §1

SMARCA2 = target: T5, SMARCA2 (Homo sapiens, UniProt P51531); experiment: Bromodomain binding assay: SMARCA2
T5 construct: made in house; host or cells: E. coli host derived from the BL21 strain (T7 phage lysate)
T5 sequence (P51531 1378-1506 limits assumed): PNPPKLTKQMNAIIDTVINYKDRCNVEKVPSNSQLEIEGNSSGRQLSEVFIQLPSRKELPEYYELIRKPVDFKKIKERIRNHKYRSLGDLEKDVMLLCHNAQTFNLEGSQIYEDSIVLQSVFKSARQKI
Method: as §1

TRIM24 = target: T6, TRIM24 (Homo sapiens, UniProt O15164); experiment: Bromodomain binding assay: TRIM24
T6 construct: made in house; host or cells: E. coli host derived from the BL21 strain (T7 phage lysate)
T6 sequence (O15164 899-1004 limits assumed): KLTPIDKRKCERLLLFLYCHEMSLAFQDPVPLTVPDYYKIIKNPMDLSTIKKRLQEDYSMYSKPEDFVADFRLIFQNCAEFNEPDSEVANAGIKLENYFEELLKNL
Method: as §1

Kd (ATAD2A): > 20000 nM
Kd (BRD7): > 20000 nM
Kd (BRD8): > 20000 nM
Kd (FALZ): > 20000 nM
Kd (SMARCA2): > 20000 nM
Kd (TRIM24): > 20000 nM
Structure (SMILES): CCOc1cc(C(=O)N2CCC(N3CCCC3)CC2)ccc1Nc1cc2c(cn1)N(C)C(=O)c1ccccc1N2C [Compound 46, 3-(2-Ethoxy-4-(4-(pyrrolidin-1-yl)piperidine-1-carbonyl)phenylamino)-5,11-dimethyl-5H-benzo[e]pyrido[3,4-b][1,4]diazepin-10(11H)-one]
EC50 (cynomolgus monkey PBMCs; read-out: EC50 (μM) under LPS stimulation, G-CSF): 0.26 µM
EC50 (cynomolgus monkey PBMCs; read-out: EC50 (μM) under LPS stimulation, GM-CSF): 0.18 µM
EC50 (cynomolgus monkey PBMCs; read-out: EC50 (μM) under LPS stimulation, IFN-γ): 0.28 µM
EC50 (cynomolgus monkey PBMCs; read-out: EC50 (μM) under LPS stimulation, IL-1ra): 0.32 µM
EC50 (cynomolgus monkey PBMCs; read-out: EC50 (μM) under LPS stimulation, IL-1β): 0.2 µM
EC50 (cynomolgus monkey PBMCs; read-out: EC50 (μM) under LPS stimulation, IL-4): 0.48 µM
EC50 (cynomolgus monkey PBMCs; read-out: EC50 (μM) under LPS stimulation, IL-6): 0.6 µM
EC50 (cynomolgus monkey PBMCs; read-out: EC50 (μM) under LPS stimulation, IL-8): 0.35 µM
EC50 (cynomolgus monkey PBMCs; read-out: EC50 (μM) under LPS stimulation, IL-10): 0.31 µM
EC50 (cynomolgus monkey PBMCs; read-out: EC50 (μM) under LPS stimulation, IL-12/IL-23 (p40)): 0.36 µM
EC50 (cynomolgus monkey PBMCs; read-out: EC50 (μM) under LPS stimulation, MCP-1): 0.13 µM
EC50 (cynomolgus monkey PBMCs; read-out: EC50 (μM) under LPS stimulation, MIP-1α): 0.78 µM
EC50 (cynomolgus monkey PBMCs; read-out: EC50 (μM) under LPS stimulation, MIP-1β): 2.2 µM
EC50 (cynomolgus monkey PBMCs; read-out: EC50 (μM) under LPS stimulation, TNF-α): 0.24 µM
EC50 (cynomolgus monkey PBMCs; read-out: EC50 (μM) under LPS stimulation, VEGF): 0.45 µM
EC50 (cynomolgus monkey PBMCs; read-out: EC50 (μM) under LPS stimulation, sCD40L): 0.41 µM
EC50 (human PBMCs; 100 ng/ml LPS 20 h, read-out: EC50 (μM) under LPS stimulation, G-CSF): 2.52 µM
EC50 (human PBMCs; 100 ng/ml LPS 20 h, read-out: EC50 (μM) under LPS stimulation, GM-CSF): 2.14 µM
EC50 (human PBMCs; 100 ng/ml LPS 20 h, read-out: EC50 (μM) under LPS stimulation, IFNγ): 0.63 µM
EC50 (human PBMCs; 100 ng/ml LPS 20 h, read-out: EC50 (μM) under LPS stimulation, IL-1β): 1.65 µM
EC50 (human PBMCs; 100 ng/ml LPS 20 h, read-out: EC50 (μM) under LPS stimulation, IL-2): 3.12 µM
EC50 (human PBMCs; 100 ng/ml LPS 20 h, read-out: EC50 (μM) under LPS stimulation, IL-4): 5.15 µM
EC50 (human PBMCs; 100 ng/ml LPS 20 h, read-out: EC50 (μM) under LPS stimulation, IL-6): 2.07 µM
EC50 (human PBMCs; 100 ng/ml LPS 20 h, read-out: EC50 (μM) under LPS stimulation, IL-7): 4.21 µM
EC50 (human PBMCs; 100 ng/ml LPS 20 h, read-out: EC50 (μM) under LPS stimulation, IL-10): 0.467 µM
EC50 (human PBMCs; 100 ng/ml LPS 20 h, read-out: EC50 (μM) under LPS stimulation, IL-12): 0.713 µM
EC50 (human PBMCs; 100 ng/ml LPS 20 h, read-out: EC50 (μM) under LPS stimulation, IL-13): 3.12 µM
EC50 (human PBMCs; 100 ng/ml LPS 20 h, read-out: EC50 (μM) under LPS stimulation, IL-17A): > 10 µM
EC50 (human PBMCs; 100 ng/ml LPS 20 h, read-out: EC50 (μM) under LPS stimulation, MCP-1): 0.104 µM
EC50 (human PBMCs; 100 ng/ml LPS 20 h, read-out: EC50 (μM) under LPS stimulation, TNFα): 0.124 µM
EC50 (human PBMCs; PMA/ionomycin 20 h, read-out: EC50 (μM) under PMA/ionomycin stimulation, GM-CSF): 3.27 µM
EC50 (human PBMCs; PMA/ionomycin 20 h, read-out: EC50 (μM) under PMA/ionomycin stimulation, IL-4): > 10 µM
EC50 (human PBMCs; PMA/ionomycin 20 h, read-out: EC50 (μM) under PMA/ionomycin stimulation, IL-5): 3.16 µM
EC50 (human PBMCs; PMA/ionomycin 20 h, read-out: EC50 (μM) under PMA/ionomycin stimulation, IL-6): 0.9 µM
EC50 (human PBMCs; PMA/ionomycin 20 h, read-out: EC50 (μM) under PMA/ionomycin stimulation, IL-7): > 10 µM
EC50 (human PBMCs; PMA/ionomycin 20 h, read-out: EC50 (μM) under PMA/ionomycin stimulation, IL-10): 0.181 µM
EC50 (human PBMCs; PMA/ionomycin 20 h, read-out: EC50 (μM) under PMA/ionomycin stimulation, IL-12): > 10 µM
EC50 (human PBMCs; PMA/ionomycin 20 h, read-out: EC50 (μM) under PMA/ionomycin stimulation, IL-13): 4.77 µM
EC50 (human PBMCs; PMA/ionomycin 20 h, read-out: EC50 (μM) under PMA/ionomycin stimulation, IL-17A): > 10 µM
EC50 (human PBMCs; PMA/ionomycin 20 h, read-out: EC50 (μM) under PMA/ionomycin stimulation, MCP-1): 0.143 µM
EC50 (human PBMCs; PMA/ionomycin 20 h, read-out: EC50 (μM) under PMA/ionomycin stimulation, MIP-1β): 8.07 µM
EC50 (human PBMCs; PMA/ionomycin 20 h, read-out: EC50 (μM) under PMA/ionomycin stimulation, TNFα): 4.14 µM

Kd (ATAD2A): > 20000 nM
Kd (BRD7): > 20000 nM
Kd (BRD8): > 20000 nM
Kd (FALZ): > 20000 nM
Kd (SMARCA2): > 20000 nM
Kd (TRIM24): > 20000 nM
Structure (SMILES): CCOc1cc(C(=O)N[C@H]2CC[C@H](O)CC2)ccc1Nc1cc2c(cn1)N(C)C(=O)c1ccccc1N2C [Compound T62]
